Reference: US20080199550A1, “Novel Anticancer Agent, Methods for Obtaining the Same and Pharmaceutical Compositions Thereof” (priority 2005, published 2008)
≈ marks a conversion by molar mass, not a printed value.

Legend:
[1] = target: T1, telomerase (Homo sapiens, UniProt O14746); experiment: Telo TAGGG Telomerase PCR ELISA; format: cell-based; conditions: MCF-7; 6.25 μg/ml; 48 and 72 hours
T1 construct: endogenous in cells; host or cells: MCF-7
Experimental: In the present study the telomerase activity of the cancer cell were assessed following the treatment with the samples with the help of Telomerase PCR ELISA (Roche, Germany). Cells were plated in a 24 well plate (2×10^5 cells per well) in DMEM supplemented with FBS (10%) and incubated for 48 hours and 72 hours in a humidified atmosphere with 95% air and 5% CO2 at 37° C. with (6.25 μg/ml) or with out (Control) the samples. Cells of the positive control group were treated with paclitaxel at 1.75 μg/ml and incubated as above. This experiment was done in human breast cancer cells (MCF-7). The cell pellets were washed with PBS and resuspended in lysis solution (200 μl) and the debris was pelleted and the supernatant was transferred to a fresh tube. The Telo TAGGG Telomerase PCR ELISA (Roche) was carried as per the manufacturer's protocol. The samples were added to a PCR amplification tube containing reaction mixture (Tris Buffer with telomerase substrate, nucleotides, Taq polymersase biotin labeled primer 1 and primer 2 specific to telomere fragment) and nuclease free water and allowed for elongation for 33 cycles in a Thermal Cycler (MJ Research, PTC 100). […] The reaction was stopped with the help of 1N H2SO4 and was read in an ELISA plate reader at a test wavelength of 450 nm and reference wavelength of 690 nm.

[2] = tested on: MCF-7; experiment: DNA integrity assay (acredine orange, fluorescent microscope); format: cell-based, human; conditions: end of 48 h of incubation
Experimental: It was observed by direct visualization under fluorescent microscope. The cell pellets were treated with acredine orange (t 1:10 dilution) and directly visualized under fluorescent microscope under UV spectrum and the changes in the DNA were documented.

[3] = tested on: MCF-7; experiment: Cell proliferation assay (trypan blue exclusion); format: cell-based, human
Experimental: (§1) For assaying the inhibitory effects of the samples on cell proliferation, cancer cells were seeded into a 96-well tissue culture plate at a cell density of 5×10^4 cells per well and incubated with plant extract at different concentrations for 24 hours in a humidified atmosphere containing 5% CO2 at 37° C. The viable and dead cell counts were performed as per trypan blue exclusion method and results were recorded.

[4] = tested on: MDA cells; experiment: Cell proliferation assay (trypan blue exclusion); format: cell-based, human
Experimental: as §1

[5] = tested on: Colo-320 DM; experiment: Cell proliferation assay (trypan blue exclusion); format: cell-based, human
Experimental: as §1

[6] = tested on: NMU induced breast tumours; experiment: N-nitroso-N-methylurea induced model of breast cancer in rats; format: in vivo, rat; conditions: 25 mg/kg po daily 3 weeks then 12.5 mg/kg i.p. twice a week 5 weeks, comparable to tamoxifen
Experimental: A standard protocol for induction of breast cancer in female Sprague-Dawley rats (7 to 8 weeks of age and weight range of 80-100 gms) with a single dose of N-nitroso-N-methylurea (NMU) was used for the study. The rats were obtained from animal facility, R & D center, The Himalaya Drug Company, Bangalore. They were maintained on standard pellet diet (Lipton India Ltd., Mumbai) and water ad libitum. Around 60 rats were selected and NMU was administered intraperitoneally at a dose of 50 mg/kg b.wt. NMU was dissolved in saline and pH adjusted to 4.8. Animals were observed daily to assess general health. […]
Three longest possible diameters were recorded, and tumour volume (cm^3) was calculated using the formula LX W X B.
The variations of the total surface areas of tumors between day 1 and day 57 were analyzed using a two-way ANOVA for repeated measurements. […]

[7] = tested on: cancer cells; experiment: Cell proliferation assay, all the cell lines; format: cell-based
Experimental: as §1

[8] = tested on: S-180 cells; experiment: Sarcoma bearing mice; format: in vivo, mouse
Experimental: Adult, male age-matched Swiss albino mice (29-34 g) housed in groups of four to five in plastic cages, received laboratory rodent chow and tap water ad libitum 14 days prior to experimentation in a temperature controlled room with a 12-h dark/light cycle. S-180 cells maintained in the peritoneal cavity of male mice were used for testing the antitumour activity. The cell suspension was diluted to 1.18×10^8 cells/ml, and 0.1 ml of the suspension was inoculated intra-peritoneally into the mice. The tumour-bearing mice were treated, 24 hrs after inoculation, by i.p. injections of 10 and 20 mg/kg of HAC-01 (2 mg/ml with vehicle in physiological saline solution) at the dosage of 0.05 and 0.1 ml/10 gm b.wt. of mouse every other day for 14 days (Total 7 injections). The control group was treated with vehicle in 0.9% NaCl. The mice b.wt. was recorded at 0,4,8, 11,16,18,20,22 and 24th day.
All data were presented as mean ±SD. Statistical significance was evaluated by t test. P<0.05 is considered as statistically significant.
White blood cell (WBC) and differential leukocyte counts were measured from freely flowing tail vein blood of normal control, sarcoma control and HAC-01 treated groups.

[9] = tested on: HL-60 cells; experiment: Genomic DNA extraction / DNA fragmentation; format: cell-based, human; conditions: 7 ug/ml, 48 h
Experimental: For assessing the extent of damage to the cellular DNA following the HAC-1 treatment, the cells under investigation were seeded in 25 cm^2 tissue culture flasks at a cell density of 1×10^6 cells per flask and incubated for different time points in a humidified atmosphere containing 5% CO2 at 37° C. The cells after incubation with samples at 7 μg/ml for 24, 48 and 72 hours were pelleted, The cell pelleted were washed with the PBS and incubated in a shaking hot water bath at 37 C. for 1-2 hours with lysis buffer for mammalian DNA extraction. The lysate was then treated with 1.5 volumes of Isopropyl alcohol and the DNA pelleted by centrifuging at […] for 20 minutes The DNA was dissolved in Tris EDTA (TE pH 8.00) and was run on 2% agarose and the visualized with the help of a gel documentation system (Pharmacia) and recorded.

[10] = tested on: MCF-7; experiment: Cell viability (MTT) assay; format: cell-based, human
Experimental: The screening of samples was done in human breast cancer cells (MCF-7, MDA-MB-468, ZR-75-1 and SK-Br-3), human liver carcinoma cells (HepG2), human colon adinocacinoma cells (Colo320 D-M), human acute promylocytic leukemia cells (HL-60), mouse sarcoma cells (Sarcoma 180), mouse melanoma cells (C57/B1/6J). Cells were maintained in DMEM, RPMI 1640(colo320-D-M and HL-60) and Mecoy's medium (SKBr-3) supplemented with 10% Fetal Calf Serum (FCS) and antibiotics (100 IU/ml of penicillin and 100 μg/ml of streptomycin) till they achieved 80% confluence in a humidified atmosphere containing 5% CO2 at 37° C. The cultures were passaged upon confluence on a regular basis. […] Morphological changes in the cells were recorded
It was performed after removal of the culture supernatants; MTT assay was performed to assess the viability of cells. […] The plates were read on a micro plate reader using a reference wavelength of 690 nm and a test wavelength of 540 nm.
For calculation of IC50 value, the data were analyzed by no leaner regression (Curve Fit) analysis using Graph Pad Prism version 4.00. The results of cell proliferation and other parameters were analyzed by one-way ANOVA with Bonferroni's Multiple Comparison Test.

[11] = tested on: MCF-7 cells; experiment: Assay for influence of estrogen; format: cell-based, human; conditions: with or without estradiol, 24 h
Experimental: The efficacy of HAC-1 was studied to assess the hormone dependent or independent activity on cell proliferation. For this purpose MCF-7 cells were initially seeded in a 24 well plate with DMEM supplemented with 10% FCS and incubated for 24 hours in a humidified atmosphere with 5% CO2 and 95% air at 37° C. The cells were then shifted to charcoal striped medium supplemented with 1% bovine albumin serum (BSA,) with or with out the estradiol and HAC-1 and incubated further for a period of 24 h. After the incubation the cell population in each of the groups was recoded by trypan blue exclusion method.

T1 sequence (O14746 whole entry): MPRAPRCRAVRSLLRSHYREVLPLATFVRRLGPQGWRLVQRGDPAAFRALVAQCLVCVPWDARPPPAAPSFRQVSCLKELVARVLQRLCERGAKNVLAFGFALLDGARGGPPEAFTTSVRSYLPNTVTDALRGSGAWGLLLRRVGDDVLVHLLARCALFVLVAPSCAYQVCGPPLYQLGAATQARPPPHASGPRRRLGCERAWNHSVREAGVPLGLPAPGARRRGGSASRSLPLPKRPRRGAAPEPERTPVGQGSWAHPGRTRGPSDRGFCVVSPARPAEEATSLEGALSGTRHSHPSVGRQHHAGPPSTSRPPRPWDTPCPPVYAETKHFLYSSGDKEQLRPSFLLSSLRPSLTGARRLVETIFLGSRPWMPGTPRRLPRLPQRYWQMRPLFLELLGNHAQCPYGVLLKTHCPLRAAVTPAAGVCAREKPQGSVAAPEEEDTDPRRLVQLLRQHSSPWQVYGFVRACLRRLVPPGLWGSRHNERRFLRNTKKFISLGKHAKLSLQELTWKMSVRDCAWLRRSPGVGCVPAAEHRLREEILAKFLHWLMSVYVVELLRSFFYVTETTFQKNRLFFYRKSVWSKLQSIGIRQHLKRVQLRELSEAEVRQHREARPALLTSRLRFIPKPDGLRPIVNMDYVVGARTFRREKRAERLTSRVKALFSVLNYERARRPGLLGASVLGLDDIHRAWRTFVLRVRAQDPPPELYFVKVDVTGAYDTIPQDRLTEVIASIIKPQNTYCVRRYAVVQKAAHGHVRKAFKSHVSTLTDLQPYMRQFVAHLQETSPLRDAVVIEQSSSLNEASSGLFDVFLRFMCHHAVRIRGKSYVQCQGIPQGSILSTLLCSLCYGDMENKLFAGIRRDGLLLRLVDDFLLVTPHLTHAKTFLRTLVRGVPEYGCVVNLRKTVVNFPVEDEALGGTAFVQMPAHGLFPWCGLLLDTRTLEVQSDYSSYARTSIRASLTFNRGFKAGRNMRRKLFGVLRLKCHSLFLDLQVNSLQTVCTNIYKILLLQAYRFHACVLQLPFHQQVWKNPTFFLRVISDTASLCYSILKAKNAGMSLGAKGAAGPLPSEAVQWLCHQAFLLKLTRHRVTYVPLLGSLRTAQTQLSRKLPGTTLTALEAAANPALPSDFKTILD

Compound | telomerase activity compared to control [1] | cells found apoptosed completely [2] | effective concentration to induce 50% inhibition of proliferation [3] [µg/mL] | effective concentration to induce 50% inhibition of proliferation [4] [µg/mL] | effective concentration to induce 50% inhibition of proliferation [5] [µg/mL] | tumor volume [6] | cell proliferation compared to control ([7]; all the cell lines, p<0.001 and p<0.01) | differential count of WBC (neutrophils, lymphocytes) ([8]; sarcoma bearing mice, 20 mg/kg, i.p.) | weight gain ([8]; tumour bearing mice, i.p. 10 and 20 mg/kg every other day for 14 days) | apoptosis (DNA pattern) [9] | IC50 [10] [µg/mL] | influence of estrogen on drug activity [11] | growth inhibition ([7]; at 1.75 μg/ml)
CC1=C2C3OC(=O)C(C)C3(O)CCC2(C)CCC1 (stereo not shown) [HAC-1, 7-hydroxyeudesm-4-en-6,12-olide] | inhibition in the telomarase activity | more than 80% | 4 | 2 | 2 | significantly reduced the tumor volume | significantly inhibited | restore these altered parameters to near normal | significantly reduced the weight gain | induced apoptosis | 1.62 (≈ 6.47 µM) | drug activity is independent of estrogen | 
CC(=O)O[C@H]1C(=O)[C@@]2(C)[C@H]([C@H](OC(=O)c3ccccc3)[C@]3(O)C[C@H](OC(=O)[C@H](O)[C@@H](NC(=O)c4ccccc4)c4ccccc4)C(C)=C1C3(C)C)[C@]1(OC(C)=O)CO[C@@H]1C[C@@H]2O [paclitaxel, reference compound] |  |  |  |  |  |  |  |  |  |  |  |  | marked growth inhibition
